Measured values published in patent publication US6943162B2, “Piperazinyltriazines as estrogen receptor modulators” (SmithKline Beecham Corporation, priority 2001, dated 2005).
Like-named read-outs stand apart in the source and are kept apart here.

Legend:
ERα = target: T1, ERα (Homo sapiens, UniProt P03372); experiment: Estrogen receptor competition binding assay (SPA, [3H]Estradiol), ERα
T1 construct: GST (N); made in house; host or cells: E. coli BL21(DE3)pLysS
T1 sequence (P03372 311-547 limits assumed): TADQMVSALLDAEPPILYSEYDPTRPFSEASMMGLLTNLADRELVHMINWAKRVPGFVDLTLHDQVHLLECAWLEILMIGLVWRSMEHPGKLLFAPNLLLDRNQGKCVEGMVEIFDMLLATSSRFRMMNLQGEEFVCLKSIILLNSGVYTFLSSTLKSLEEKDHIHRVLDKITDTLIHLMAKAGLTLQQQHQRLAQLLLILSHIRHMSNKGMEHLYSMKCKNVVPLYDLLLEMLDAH
Description: (§1) The ligand binding domain of both ERα and ERβ were subcloned into pGEX-2T vector which had been modified to contain KpnI and BamHI restriction sites in the multiple cloning region. GST-hERα and GST-hERβ proteins were made by transforming BL21(DE3)pLYS S competent cells with the appropriate expression plasmid. […] The cells were collected by centrifugation and resuspended in lysis buffer (50 mM Tris pH 7.9; 250 mM KCl; 1% Triton X-100; 10 mM DTT; 1 mM PMSF). The lysate was then placed on dry ice until completely frozen. […] The supernatant was retained and glycerol was added to a final concentration of 10%. The protein content of the supernatant was quantitated using the BioRad Protein Assay Reagent The protein was then stored at −80° C. until used in the binding assay.
(§2) Polylysine coated Yttrium Silicate SPA beads (Amersham #RPNQ 0010) are resuspended in assay buffer [10 mM potassium phosphate buffer pH 7.0 containing 2 mM EDTA, 50 mM NaCl, 1 mM DTT, 2 mM CHAPS, 10% glycerol] to a concentration of 1 g/60 ml. […] [2, 4, 6, 7, 16, 17-3H(N)]-Estradiol is added as a 30 ul aliquot to give a final assay concentration of 1 nM. […] The plates are shaken vigorously for two hours then counted on a Packard TopCount using the protocol for counting tritium yttrium silicate SPA beads. Data analysis was done by standard methods. % Bound was calculated for each concentration of each test compound using the equation % Bound=100*((Test−NS)/(T−NS)). % Bound was plotted vs concentration and curve fitting was accomplished using non-linear regression.

ERβ = target: T2, ERβ (Homo sapiens, UniProt Q92731); experiment: Estrogen receptor competition binding assay (SPA, [3H]Estradiol), ERβ
T2 construct: GST (N); made in house; host or cells: E. coli BL21(DE3)pLysS
T2 sequence (Q92731 264-498 limits assumed): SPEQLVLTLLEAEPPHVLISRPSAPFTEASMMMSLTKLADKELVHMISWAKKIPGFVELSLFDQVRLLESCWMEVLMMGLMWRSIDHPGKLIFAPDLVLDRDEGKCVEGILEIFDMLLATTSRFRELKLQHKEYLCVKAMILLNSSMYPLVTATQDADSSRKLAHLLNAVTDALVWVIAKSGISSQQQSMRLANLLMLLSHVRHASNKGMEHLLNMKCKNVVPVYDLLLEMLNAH
Description: as §1, §2

[1] = competition binding assay, GST-hERα ligand binding domain, 1 nM [3H]Estradiol, (n) = number of determinations, read-out: Avg. ER α pKi (n) (converted)

SMILES | Ki (ERα; [1]) | Ki (ERβ) | Ki (ERα)
CN(CCCc1ccc(Cl)cc1)c1nc(NCCc2ccc(O)cc2)nc(N2CCN(Cc3ccccn3)CC2)n1 [Example 5, 4-[2-({4-[[3-(4-chlorophenyl)propyl](methyl)amino]-6-[4-(2-pyridinylmethyl)-1-piperazinyl]-1,3,5-triazin-2-yl}amino)ethyl]phenol] | – | 38 nM | –
CN(CCCc1ccc(Cl)cc1)c1nc(NCCc2ccc(O)cc2)nc(N2CCN(Cc3cccnc3)CC2)n1 [Example 6, 4-[2-({4-[[3-(4-chlorophenyl)propyl](methyl)amino]-6-[4-(3-pyridinylmethyl)-1-piperazinyl]-1,3,5-triazin-2-yl}amino)ethyl]phenol] | – | 31.6 nM | –
CN(CCCc1ccc(Cl)cc1)c1nc(NCCc2ccc(O)cc2)nc(N2CCN(/C(=C/C(=O)c3ccccc3)C(F)(F)F)CC2)n1 [Example 8, (2E)-3-[4-(4-[[3-(4-chlorophenyl)propyl](methyl)amino]-6-{[2-(4-hydroxyphenyl)ethyl]amino}-1,3,5-triazin-2-yl)-1-piperazinyl]-4,4,4-trifluoro-1-phenyl-2-buten-1-one] | 1580 nM | 83.2 nM | –
CN(CCCc1ccc(Cl)cc1)c1nc(NCCc2ccc(O)cc2)nc(N2CCN(C/C=C/c3ccccc3)CC2)n1 [Example 13, 4-{2-[(4-[[3-(4-chlorophenyl)propyl](methyl)amino]-6-{4-[(2E)-3-phenyl-2-propenyl]-1-piperazinyl}-1,3,5-triazin-2-yl)amino]ethyl]phenol] | 141 nM | 10 nM | –
CN1CCN(c2nc(N(C)CCCc3ccc(Cl)cc3)nc(N(C)CCc3ccc(O)cc3)n2)CC1 [Example 15, 4-(2-{[4-[[3-(4-chlorophenyl)propyl](methyl)amino]-6-(4-methyl-1-piperazinyl)-1,3,5-triazin-2-yl](methyl)amino}ethyl)phenol] | 380 nM | 13.2 nM | –
C[C@@H]1CN(c2nc(N(C)CCCc3ccc(Cl)cc3)nc(N(C)CCc3ccc(O)cc3)n2)C[C@H](C)N1 [Example 16, 4-(2-{[4-[[3-(4-chlorophenyl)propyl](methyl)amino]-6-(3,5-cis-dimethyl-1-piperazinyl)-1,3,5-triazin-2-yl](methyl)amino}ethyl)phenol] | 229 nM | 11 nM | –
CN(CCCc1ccc(Cl)cc1)c1nc(N(C)CCc2ccc(O)cc2)nc(N2CCN(CCO)CC2)n1 [Example 17] | 603 nM | 28.8 nM | –
CN(CCCc1ccc(F)cc1)c1nc(NCCc2ccc(O)cc2)nc(N2CCNCC2)n1 [Example 18, 4-(2-{[4-[[3-(4-fluorophenyl)propyl](methyl)amino]-6-(1-piperazinyl)-1,3,5-triazin-2-yl]amino}ethyl)phenol] | 372 nM | 15.8 nM | –
CN(CCCc1ccc(F)cc1)c1nc(N(C)CCc2ccc(O)cc2)nc(N2CCNCC2)n1 [Example 19, 4-(2-{[4-[[3-(4-fluorophenyl)propyl](methyl)amino]-6-(1-piperazinyl)-1,3,5-triazin-2-yl]methylamino}ethyl)phenol] | 550 nM | 24.5 nM | –
CN(CCCc1ccc(F)c(F)c1)c1nc(N(C)CCc2ccc(O)cc2)nc(N2CCNCC2)n1 [Example 21, 4-(2-{[4-[[3-(3,4-difluorophenyl)propyl](methyl)amino]-6-(1-piperazinyl)-1,3,5-triazin-2-yl]methylamino}ethyl)phenol] | 214 nM | 23.4 nM | –
CN(CCCc1ccc(C(F)(F)F)cc1)c1nc(N(C)CCc2ccc(O)cc2)nc(N2CCNCC2)n1 [Example 22, 4-(2-{methyl[4-(methyl{3-[4-(trifluoromethyl)phenyl]propyl}amino)-6-(1-piperazinyl)-1,3,5-triazin-2-yl]amino}ethyl)phenol] | 550 nM | 85.1 nM | –

Continued by falling Ki (ERβ), values first:

Ki (ERα; [1]) | Ki (ERβ) | Ki (ERα) | SMILES
4370 nM | 155 nM | – | CN(CCCc1ccc(Cl)cc1)c1nc(NCCc2ccc(O)cc2)nc(N2CCN(C(=O)c3ccccn3)CC2)n1 [Example 4, 4-[2-({4-[[3-(4-chlorophenyl)propyl](methyl)amino]-6-[4-(2-pyridinylcarbonyl)-1-piperazinyl]-1,3,5-triazin-2-yl}amino)ethyl]phenol]
1780 nM | 95.5 nM | – | COc1cccc(C(=O)N2CCN(c3nc(NCCc4ccc(O)cc4)nc(N(C)CCCc4ccc(Cl)cc4)n3)CC2)c1 [Example 3, 4-[2-({4-[[3-(4-chlorophenyl)propyl](methyl)amino]-6-[4-(3-methoxybenzoyl)-1-piperazinyl]-1,3,5-triazin-2-yl}amino)ethyl]phenol]
398 nM | 63.1 nM | – | CN1CCN(c2nc(NC3CCc4cc(O)ccc4C3)nc(SCCCc3ccccc3)n2)CC1 (stereo not shown) [Example 10, 6-({4-(4-methyl-1-piperazinyl)-6-[(3-phenylpropyl)sulfanyl]-1,3,5-triazin-2-yl}amino)-5,6,7,8-tetrahydro-2-naphthalenol]
501 nM | 33.1 nM | – | CN(CCCc1ccc(Cl)cc1Cl)c1nc(N(C)CCc2ccc(O)cc2)nc(N2CCNCC2)n1 [Example 23, 4-(2-{[4-[[3-(2,4-dichlorophenyl)propyl](methyl)amino]-6-(1-piperazinyl)-1,3,5-triazin-2-yl]methylamino}ethyl)phenol]
562 nM | 26.3 nM | – | CN(CCCc1ccc(Cl)cc1)c1nc(N(C)CCc2ccc(O)cc2)nc(N2CCNCC2)n1 [Example 14, 4-{2-[[4-[[3-(4-chlorophenyl)propyl](methyl)amino]-6-(1-piperazinyl)-1,3,5-triazin-2-yl](methyl)amino]ethy}phenol]
562 nM | 23.4 nM | – | CN1CCN(c2nc(N(C)CCCc3ccc(F)cc3)nc(N(C)CCc3ccc(O)cc3)n2)CC1 [Example 20, 4-(2-{[4-[[3-(4-fluorophenyl)propyl](methyl)amino]-6-(4-methyl-1-piperazinyl)-1,3,5-triazin-2-yl]methylamino}ethyl)phenol]
– | 22.9 nM | – | C=CCN1CCN(c2nc(NCCc3ccc(O)cc3)nc(N(C)CCCc3ccc(Cl)cc3)n2)CC1 [Example 12, 4-[2-({4-(4-ally-1-piperazinyl)-6-[[3-(4-chlorophenyl)propy](methyl)amino]-1,3,5-triazin-2-yl}amino)ethyl]phenol]
355 nM | 20 nM | – | CN(C)C(=O)CCN1CCN(c2nc(NCCc3ccc(O)cc3)nc(N(C)CCCc3ccc(Cl)cc3)n2)CC1 [Example 9, 3-[4-(4-[[3-(4-chlorophenyl)propyl](methyl)amino]-6-{[2-(4-hydroxyphenyl)ethyl]amino}-1,3,5-triazin-2-yl)-1-piperazinyl]-N,N-dimethylpropanamide]
– | 18.6 nM | – | Cc1nc(CN2CCN(c3nc(NCCc4ccc(O)cc4)nc(N(C)CCCc4ccc(Cl)cc4)n3)CC2)cs1 [Example 7, 4-{2-[(4-[[3-(4-chlorophenyl)propyl](methyl)amino]-6-{4-[(2-methyl-1,3-thiazol-4-yl)methyl]-1-piperazinyl}-1,3,5-triazin-2-yl)amino]ethyl}phenol]
– | 14.8 nM | 339 nM | CN(CCCc1ccc(Cl)cc1)c1nc(NCCc2ccc(O)cc2)nc(N2CCN(CCO)CC2)n1 [Example 24, 4-[2-({4-[[3-(4-chlorophenyl)propyl](methyl)amino]-6-[4-(2-hydroxyethyl)-1-piperazinyl]-1,3,5-triazin-2-yl}amino)ethyl]phenol]
339 nM | 10.5 nM | – | CN(CCCc1ccc(Cl)cc1)c1nc(NCCc2ccc(O)cc2)nc(N2CCNCC2)n1 [Example 1, 4-(2-{[4-[[3-(4-chlorophenyl)propyl](methyl)amino]-6-(1-piperazinyl)-1,3,5-triazin-2-yl]amino}ethyl)phenol]
